This is an account of results in patent publication US10172825B2, “Pharmacological treatment of cognitive impairment” (priority 2006, dated 2019).

“Also recorded” adds a separate entry of the source. Like-named read-outs stand apart in the source and are kept apart here.

For data set [1] the following is noted: humans, oral intake of a 80-120 mg dose of ginkgo biloba leaf extract; cited from earlier work.
Data set [2] deals with rats. The conditions noted are these: cited from earlier work.
Data set [3] relates to rats. The conditions noted are these: dose selective for α5-containing GABAA receptors; cited from earlier work.
The subject of data set [4] is Ts65Dn mice. As to the kind of experiment: Two-object based object recognition task. It is filed as in vivo, mouse. The settings on record: for Persistence of cognitive improvement after drug treatment, summary statement: after cessation of chronic treatment; for Object recognition memory, summary statement: chronic administration. The source says: The object recognition task, a behavioral assay not requiring explicit rule learning or prolonged training, is based on the innate tendency of mice to differentially explore novel objects over familiar ones. Animals are submitted to daily handling sessions and are given an opportunity to habituate to a black acrylic, boxed enclosure, where they are exposed to two different objects during a 15-min training session. […] All are generally consistent in height and volume, and are symmetrical on a horizontal plane. They are set in two corners of the apparatus, positioned across from one another along its diameter. Subsequently, a 15-min. testing session is conducted 24 h after training. Here, the mice are presented with the object they had explored the previous day, and a new item (the objects being alternatively positioned in one corner or another in a balanced fashion).
Memory is operationally defined as the proportion of time animals spend investigating the novel object minus the proportion spent investigating the familiar one (Discrimination Index, DI=[Novel Object Exploration Time/Total Exploration Time−Familiar Object Exploration Time/Total Exploration Time]×100), where exploration constitutes any investigative behavior (i.e., head orientation, sniffing) or deliberate contact (i.e. rearing, licking) that occurs with each object. Behavioral trials are recorded by a tripod-mounted digital camera. Importantly, the object recognition task can be used repeatedly to evaluate rodent memory across time, and across various drug treatment regiments. Mice are trained and tested once per week, each experimental session separated by a 1-week interval, and are serially presented with new sets of objects. In this scheme, each mouse is considered a naïve subject, and each week's performance is considered an independent observation. Finally, all behavioral data are analyzed by Student's unpaired t tests.
Moreover, learning performance in the test is not confounded by task aversiveness, a variable common in avoidance paradigms, in food-motivated tasks, and in the Morris water maze (MWM). […] Thus, object recognition is an appropriate rodent cognitive task to assess Ts65Dn learning and memory deficits, and the mitigation of these deficits with pharmacological treatment.
The present experiment was carried out in a longitudinal, cross-over fashion, submitting four cohorts of WT and Ts65Dn experiment al pairs to a 4-week testing schedule. […] Note that untreated WT and Ts65Dn pairs had been previously run in order to validate the 2-object recognition test. […] N values reflect the number of observations (repetitions) per treatment. DI values are expressed as mean±SEM.
The animals were randomly assigned to groups receiving daily servings of chocolate milk or Metrazol (3 mg/kg), and were submitted to two repetitions of object recognition testing. For the purposes of drug delivery, all mice were conditioned to drinking chocolate milk in their home cages and then in cylindrical feeding tubes for 4 days. Subsequent to this conditioning, they were placed daily into the feeding tubes, and presented with small eppendorf caps of milk or a milk-Metrazol cocktail. The milk solutions were typically consumed within 10 min, after which the mice were returned to their home cages. In the current experiment, two cohorts of WT and Ts65Dn mice were submitted to a twoweek testing schedule. […] N values reflect the number of observations (repetitions) per treatment. DI values are expressed as mean±SEM.

The test system of data set [5] is Ts65Dn mice. The data set can be described thus: Spontaneous holeboard task. It is filed as in vivo, mouse. From the text: One cohort of WT and Ts65Dn mice, used to determine the effects of chronic Metrazol on Ts65Dn object recognition performance, were submitted to a spontaneous holeboard task approximately 1 month after the end of Metrazol treatment and object recognition testing. Here, milk- and drug-treated animals (now 5.0 months of age) were habituated to Med Associates open field activity monitors (27.9 cm×27.9 cm) (FIGS. 7b and 7c), and then evaluated for holeboard exploration during a 7-min session. Please note that 2 rounds of holeboard testing were conducted during the light phase of the light/dark cycle, and were separated by a 1-week interval. […] N values reflect the number of observations (repetitions) per treatment. Values are expressed as mean±SEM.

The subject of data set [6] is Ts65Dn mice. As to the kind of experiment: Hippocampal LTP after chronic drug administration. It is filed as in vivo, mouse. The settings on record: after chronic once a day administration. From the text: It is shown that chronic (but not acute) once a day drug administration in Ts65Dn mice was able to normalize cognitive performance in the novel object recognition and spontaneous alteration tasks, and to rescue hippocampal LTP (see also Fernandez et al. (2007) Nat. Neurosci. 10, 411-413, herein specifically incorporated by reference).

Another data set concerns rats and mice. The conditions noted are these: acute post-training, peripheral injection or oral intake; cited from earlier work.
The test system of data set [7] is rats. The settings on record: chronic subcutaneous, approximately 10.0 mg/kg, ~9 months; cited from earlier work.
For data set [8] the following is noted: cited from earlier work.
For data set [9] the following is noted: cited from earlier work. The source holds these as a separate data set.
Data set [10] relates to hippocampal population spikes. The settings on record: cited from earlier work.
For data set [11] the following is noted: barbital-induced narcosis; cited from earlier work.
For data set [12], the system named is children with Down Syndrome. The settings on record: children with Down Syndrome (Cocchi 1985); cited from earlier work.
Data set [13] deals with Ts65Dn mice. As to the kind of experiment: Accelerating rotorod test (motor learning). It is filed as in vivo, mouse. The settings on record: chronic PTX treatment (FIG. 12).
The subject of a further data set is Ts65Dn hippocampal LTP. The conditions noted are these: application of picrotoxin in vitro (Kleschevnikov 2004); cited from earlier work.

As for `CC1C(=O)OC2C(O)C34C5CC(C(C)(C)C)C36C(OC(=O)C6O)OC4(C(=O)O5)C12O` (stereo not drawn) [Ginkgolide B, ginkgolide B], in data set [1], the Bioavailability result was “at least 80%” and the Half-life was 6 h.

For `CCOC(=O)c1ncn2c1[C@@H]1CCCN1C(=O)c1cc(OC)ccc1-2` [L-655,708], the Cognition entry in the data set on rats [2] is listed as “enhance cognition in rats”. Further, the Pro-convulsant effect entry in the data set with rats [3] is “not pro-convulsant”.

On to `C1CCc2nnnn2CC1` [Metrazol, pentamethylenetetrazol], for which, in the data set on Ts65Dn mice [4] (Ts65Dn mice), the “Persistence of cognitive improvement after drug treatment, summary statement” value (“Persistence of cognitive improvement” below) is reported as “found to have longevity in its effects for weeks after treatment” and the “Object recognition memory, summary statement” value was “restore Ts65Dn object recognition performance”. The “Persistence of cognitive improvement” value in the data set on Ts65Dn mice [4] (Ts65Dn mice, listed as PTZ) is “persistent, post-drug recovery of Ts65Dn cognition”. In addition, the “Discrimination Index (DI), object recognition memory” value (“Discrimination Index (DI)” below) in the data set with Ts65Dn mice [4] (Ts65Dn mice, daily oral Metrazol 3 mg/kg in milk, compared with Ts65Dn mice given milk alone (p<0.03)) was “significantly higher than Ts65Dn mice administered milk alone”. In the data set with Ts65Dn mice [4] (Ts65Dn mice, daily oral Metrazol 3 mg/kg in milk, two weeks, compared with WT mice given milk (p<0.16) or Metrazol (p<0.47)), the “Discrimination Index (DI)” value is given as “DI scores on par with those of WT mice given milk”. Besides, the “Holeboard exploration efficiency (head-dips into previously explored holes)” value in the data set on Ts65Dn mice [5] (Ts65Dn mice about 1 month after end of Metrazol treatment, compared with WT-milk (p>0.07) and WT-Metrazol (p<0.31)) is recorded as “showed similar exploration efficiency”. Moreover, the “Holeboard exploration efficiency, summary statement” value in the data set with Ts65Dn mice [5] (Ts65Dn mice after GABA antagonist treatment with Metrazol) was “rescued and persevere in Ts65Dn mice”. Besides, in the data set with Ts65Dn mice [6], the “Post-drug recovery of hippocampal LTP” value is “post-drug recovery of Ts65Dn cognition and LTP lasting for several months”. Further, the Learning and memory entry in the data set on rats and mice is “facilitate normal learning and memory in rats and mice”. Besides, in the data set on rats [7], the “Reversal learning in a shock-motivated, spatial maze task” value is recorded as “elevates reversal learning” and the “Signs of neuronal aging in the hippocampus” value is recorded as “curtails signs of neuronal aging in the hippocampus”. In addition, in data set [8] (after intraperitoneal injection, cerebellum, midbrain, cortex), the “Distribution between brain regions” value is reported as “allocated evenly between the 3 major brain divisions”. Also, the “Time to maximum physiological levels” value in data set [8] (after oral intake or systemic injection) is 5-10 min. In data set [8] (in vivo), the Blood-brain barrier passage entry is on record as “readily crosses the blood-brain barrier”, the Half-life was 1 to 2 h and the Volume of distribution result was “approximates the volume of total body water”. The “Adverse or toxic effects” value in data set [9] (humans, dose range of less than about 100-400 mg/day) is recorded as “little to no adverse or toxic effects”. In [9] (patients on Metrazol), the Electrocardiographic tracings result is on record as “no abnormalities in their electrocardiographic tracings” and the “Temperature curves, respiration, blood sugar, icteric index, pulse rate” value is on record as “no changes in temperature curves, respiration, blood sugar, icteric index or pulse rate”.

Turning to `CC(C)(C)[C@]1(O)C[C@@H]2OC(=O)C[C@@]23C(=O)O[C@@H]2OC(=O)[C@H](O)[C@]213` [bilobalide, Bilobalide], in the data set on Ts65Dn mice [4] (Ts65Dn mice, 30 daily i.p. injections through the 4-week testing schedule), the “Discrimination Index (DI)” value was “resembled Ts65Dn mice receiving PTX”. Moreover, the “Object recognition memory, summary statement” value with Ts65Dn mice [4] (Ts65Dn mice) was “restore Ts65Dn object recognition performance”. Besides, the Paired pulse inhibition entry in data set [10] is “decrease paired pulse inhibition”. For the same molecule, the “Amplitude of hippocampal population spikes” value in data set [10] (muscimol-dependent manner) is “significantly increase the amplitude of hippocampal population spikes”. For the same molecule, the Sleeping time result in [11] was “shorten sleeping time”. In [1], the Bioavailability is reported as 70% and the Half-life is on record as 3 h.

Turning to `CN1C(=O)CN=C(c2ccccc2)c2cc(Cl)ccc21` [diazepam], the Depression entry in [12] is “reducing depression”.

As to Picrotoxin [PTX], the “Time normal object recognition memory is maintained post-treatment” value in the data set on Ts65Dn mice [4] (PTX-treated Ts65Dn mice after cessation of chronic treatment) is “at least 2 weeks”. Moreover, in the data set with Ts65Dn mice [4] (Ts65Dn mice, acute PTX (FIG. 11)), the Object recognition performance entry is listed as “Unable to Reliably Rescue Ts65Dn Performance”. Besides, the “Persistence of cognitive improvement” value with Ts65Dn mice [4] (Ts65Dn mice) is “maintained post drug treatment”. Further, the “Object recognition memory, summary statement” value is given as “able to recover Ts65Dn declarative memory” with Ts65Dn mice [4] (Ts65Dn mice); “normalizes object recognition memory in Ts65Dn mice” in the data set with Ts65Dn mice [4] (Ts65Dn mice, listed as Picrotoxin); “normalizes learning of Ts65Dn mice in an object recognition task” in the data set with Ts65Dn mice [4] (Ts65Dn mice, listed as picrotoxin). Further, the “Rotorod performance / motor learning” value in the data set on Ts65Dn mice [13] was “does not influence Ts65Dn motor learning; also recorded: does not influence Ts65Dn Rotorod Performance”. In addition, in the data set with Ts65Dn hippocampal LTP, the “Deficits in Ts65Dn hippocampal LTP” value is on record as “shown to reverse”.
